Results on 43 compounds are retold here after patent publication US20080312271A1, “AZABENZIMIDAZOLYL COMPOUNDS” (Pfizer Inc., priority 2006, published 2008).

T1 sequence (Q14416 19-872, species assumed): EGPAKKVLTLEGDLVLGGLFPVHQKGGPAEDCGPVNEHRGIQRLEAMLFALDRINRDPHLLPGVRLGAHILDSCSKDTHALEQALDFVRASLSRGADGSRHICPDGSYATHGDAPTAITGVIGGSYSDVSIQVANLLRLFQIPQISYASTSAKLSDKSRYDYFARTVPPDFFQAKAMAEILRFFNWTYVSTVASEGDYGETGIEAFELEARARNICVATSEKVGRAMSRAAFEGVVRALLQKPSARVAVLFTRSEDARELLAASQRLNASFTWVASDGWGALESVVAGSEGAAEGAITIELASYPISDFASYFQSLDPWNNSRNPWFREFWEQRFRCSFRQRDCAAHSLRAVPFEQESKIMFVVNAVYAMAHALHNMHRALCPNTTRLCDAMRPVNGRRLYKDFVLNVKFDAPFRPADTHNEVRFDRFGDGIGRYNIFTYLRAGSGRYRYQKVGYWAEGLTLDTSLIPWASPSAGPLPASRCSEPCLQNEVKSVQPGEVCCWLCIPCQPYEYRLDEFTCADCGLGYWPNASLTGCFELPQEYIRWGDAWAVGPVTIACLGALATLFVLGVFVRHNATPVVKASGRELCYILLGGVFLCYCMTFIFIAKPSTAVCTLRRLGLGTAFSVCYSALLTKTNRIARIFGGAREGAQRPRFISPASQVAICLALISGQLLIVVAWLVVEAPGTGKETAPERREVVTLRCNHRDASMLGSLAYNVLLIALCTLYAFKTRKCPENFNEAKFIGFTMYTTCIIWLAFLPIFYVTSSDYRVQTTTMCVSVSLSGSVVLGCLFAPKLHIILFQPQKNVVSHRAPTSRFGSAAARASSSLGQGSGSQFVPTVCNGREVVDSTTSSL

The first assay concerns the target T1, mGluR2 receptor (metabotropic glutamate receptor 2) (Homo sapiens, UniProt Q14416).
T1 construct: expressed in transfected cells
The assay can be described thus: mGluR2 Potentiator Screen, FLIPR, EC10-EC20 glutamate challenge. In kind it is cell-based.
Conditions: not given
As to the method:
Procedure for mGluR2 Potentiator Screen NLB methods EC10-EC20 Challenge Cell Culture and Plating:
Cells used for this screen are HEK cells stably transfected with the mGluR2 receptor (metabotropic glutamate receptor 2) and the Gα15 G protein. Clones were identified by functional activity (FLIPR). Cells are grown in growth media containing: DMEM High Glucose with Glutamine and Na Pyruvate (GIBCO), 10% (v/v) Heat inactivate FBS (GIBCO), G418 500 ug/ml (from 50 mg/ml stock) (GIBCO) and Blasticidin 3 ug/ml (from 5 mg/ml stock made in H2O) (Invitrogen).
2 days before the assay cell are trypsinized with 0.25% trysin/EDTA (GIBCO), spun down at 1000 rpm for 5 minutes, resuspended in growth media and plated on polystyrene 384 well black wall 1 clear bottom poly-D-lysine coated plates at a density of approximately 18,000 cells/well in a volume of 50 μL per well. One day before the assay the growth media is removed from the plates by flicking, and replaced with media containing DMEM High Glucose without Glutamine and Na Pyruvate (GIBCO) and 10% (v/v) dialyzed FBS (GIBCO). The reason for the removal of glutamine the day before the assay is to minimize the amount of glutamate that will be present during the assay, as endogenous glutarnate released from the cells can reduce the fluorescent response and interfere with the FLIPR screen.
FLIPR Methods and Data Analysis:
On the day of the assay, the FLIPR assay is performed using the following methods.
The pH is adjusted to 7.4 with 1 M NaOH. Prepare a 2 mM (approx.) stock solution of Fluo-4,am (Molecular Probes) dye in DMSO-22 μl DMSO per 50 ug vial (440 μL per 1 mg vial). Make a 1 mM (approx.) flou-4, PA working solution per vial by adding 22 μl of 20% pluronic acid (PA), (Molecular Probes) in DMSO to each 50 ug vial (440 μL per 1 mg vial). Prepare a 250 mM Probenecid (Sigma) stock solution by dissolving 0.71 g into 5 ml 1N NaOH and 5 ml assay buffer (for each liter of assay wash buffer)L Make 4 uM (approx.) dye incubation media by adding […] per 11 ml DMEM high glucose without glutamine (220 ml per 1 mg vial). Add 110 μL probenecid stock per 11 ml (2.5 mM final [concentration]). To the dye media add 3 units/ml of glutamic-pyruvic transaminase (GPT, Sigma) and 3 mM Na Pyruvate. The assay has worked with dye concentrations from 2 uM to 8 uM dye as well. To the assay buffer from drug preparation, add 1.83 mls DMSO and 400 μL 15.8% P104 (from New Leads biology) per liter for final concentrations of 0.18% DMSO and 0.006% P104. To the assay buffer for cell washing, add probenecid in the same manner and concentration that was used for the dye media.
Remove growth media from cell plates by flicking. Add 50 μl/well dye solution. Incubate 1 hour at 37° C. and 5% CO2. Remove dye solution and wash 3 times with assay buffer+probenecid (100 μl probenecid stock per 10 ml buffer), leaving 30 μL/well assay buffer. Wait at least 10-15 minutes. Compounds and agonist challenge additions are performed with the FLIPR. The 1st addition is for test compounds, which are added as 15 μL of 4×[concentration] of potentiator. The second 2nd addition is 15 μL of 4×[concentration] of agonist or challenge. This achieves 1× concentration of all compounds only after 2nd addition. The 1st and 2nd additions are performed separately using the FLIPR, which give 2 different data files. Compounds are pretreated at least 30 minutes before agonist addition,
Results are analyzed by dividing the peak fluorescent value of the FLIPR response by the […] to achieve a ratio response. The ratios are then analyzed by curve fitting programs. […] Maximum values for dose response curves (forced fitting) are derived from standards on the plate.
Compound Preparation and Glutamate Challenge:
Compounds are delivered as 10 mM DMSO stocks or as powders, Powders are solubilized in DMSO at 10 mM (as solubility allows). Compounds are sonicated in a heated water bath (35-40° C.) for at least 20 minutes.
Turning to `C[C@@H]1CN(Cc2nc3cnccc3n2C)CC[C@@H]1c1ccc(C(F)(F)F)cc1F` (single isomer, unassigned) [compound 144], the EC50 came to 23 nM. As for `Cn1c(CN2CCC(c3ccc(C(F)(F)F)cc3)CC2)nc2ncccc21` [compound 52], the EC50 was 47.9 nM. Still for that read-out and setting: then `Cn1c(CN2CCC(c3ccc(Cl)cc3F)CC2)nc2cccnc21` [compound 112], with 58.5 nM; and `C[C@@H]1CN(Cc2nc3cnccc3n2C)CC[C@@H]1c1ccc(F)cc1F` (relative stereo) [compound 125], with 10300 nM; and `C[C@@H]1CN(Cc2nc3cnccc3n2C)CC[C@@H]1c1ccc(OC(F)(F)F)cc1` (single isomer, unassigned) [compound 175], with over 3200 nM.

Take `Cn1c(CN2CCC(c3ccc(Cl)c(F)c3)CC2)nc2cccnc21` [compound 109]: the EC50 amounted to 378 nM. On to `C[C@@H]1CN(Cc2nc3nccc4c3n2CCC4)CC[C@@H]1c1ccc(F)c(Cl)c1` (relative stereo) [Example 128, 2-{[Cis-4-(3-chloro-4-fluorophenyl)-3-methylpiperidin-1-yl]methyl}-5,6-dihydro-4H-imidazo[4,5,1-ij]-1,7-naphthyridine], for which the EC50 was 134 nM. On the same count and under the same terms, the result for `C[C@@H]1CN(Cc2nc3cnccc3n2C)CC[C@@H]1c1ccc(C(F)(F)F)c(F)c1` (single isomer, unassigned) [compound 183] reads 53.2 nM; that for `COc1cc(C(F)(F)F)ccc1[C@H]1CCN(Cc2nc3cnccc3n2C)C[C@H]1C` (single isomer, unassigned) [compound 142], over 314 nM; that for `C[C@@H]1CN(Cc2nc3cnccc3n2C)CC[C@@H]1c1ccc(OC(F)(F)F)cc1Cl` (relative stereo) [compound 188], 194 nM.

On to `C[C@@H]1CN(Cc2nc3ncccc3n2C)CC[C@@H]1c1ccc2c(c1)CCCC2` (relative stereo) [compound 189], for which the half-maximal effective concentration (EC50) is 621 nM. Still for that read-out and setting: the result for `Cn1c(CN2CCC(c3ccccc3C(F)(F)F)CC2)nc2cnccc21` [compound 48] reads 481 nM; that for `COc1cc(F)ccc1[C@H]1CCN(Cc2nc3cnccc3n2C)C[C@H]1C` (relative stereo) [compound 133], 53.7 nM.

Take `Cn1c(CN2CCC(c3ccc(Cl)c(F)c3)CC2)nc2ncccc21` [compound 106]: the EC50 came out at 190 nM. Turning to `Cn1c(CN2CCC(c3ccc(C(F)(F)F)cc3)C(O)C2)nc2ncccc21` (stereo not shown) [compound 86], the EC50 is over 2750 nM. On the same count and under the same terms, the result for `C[C@@H]1CN(Cc2nc3cnccc3n2C)CC[C@@H]1c1ccc(C(F)(F)F)cc1F` (single isomer, unassigned) [compound 143] reads 1180 nM. As for `COc1cc(F)ccc1C1CCN(Cc2nc3ncccc3n2C)CC1` [compound 87], the 50% effective concentration (EC50) stood at 212 nM.

Turning to `COc1ccccc1C1CCN(Cc2nc3cccnc3n2C)CC1C` (stereo not shown) [compound 59], the EC50 was found to be 349 nM.

In the case of `Cn1c(CN2CCC(c3ccc(C(F)(F)F)cc3)CC2)nc2cnccc21` [compound 47], the EC50 was determined as 168 nM.

Regarding `Cc1cc(Cl)ccc1[C@H]1CCN(Cc2nc3ncccc3n2C)C[C@H]1C` (relative stereo) [compound 160], the EC50 was determined as 102 nM. For the compound `C[C@@H]1CN(Cc2nc3ncccc3n2C)CC[C@@H]1c1ccc(OC(F)F)cc1` (single isomer, unassigned) [compound 223], the concentration giving a half-maximal response (EC50) is over 129 nM. On the same count and under the same terms, the result for `C[C@@H]1CN(Cc2nc3nccc4c3n2CCC4)CC[C@@H]1c1ccc(Cl)cc1F` (relative stereo) [Example 129, 2-{[Cis-4-(4-chloro-2-fluorophenyl)-3-methylpiperidin-1-yl]methyl}-5,6-dihydro-4H-imidazo[4,5,1-ij]-1,7-naphthyridine] reads 12.5 nM; that for `FC(F)(F)c1ccc(C2CCN(Cc3nc4nccc5c4n3CCC5)CC2)cc1` [Example 126, 2-({4-[4-(trifluoromethyl)phenyl]-piperidin-1-yl}methyl)-5,6-dihydro-4H-imidazo[4,5,1-ij]-1,7-naphthyridine], 62.6 nM. Still for that read-out and setting: then `C[C@@H]1CN(Cc2nc3ncccc3n2C)CC[C@@H]1c1ccc(F)c(Cl)c1` (relative stereo) [compound 111], with 203 nM; and `C[C@@H]1CN(Cc2nc3ncccc3n2C)CC[C@@H]1c1ccc(OC(F)(F)F)cc1Cl` (relative stereo) [compound 187], with 63 nM. On the same count and under the same terms, then `C[C@@H]1CN(Cc2nc3ncccc3n2C)CC[C@@H]1c1ccc(Cl)cc1F` (relative stereo) [compound 115], with 19.5 nM; and `C[C@@H]1CN(Cc2nc3ncccc3n2C)CC[C@@H]1c1ccc(C(F)(F)F)cc1Cl` (relative stereo) [compound 151], with 30 nM. Take `CC(C)Oc1cc(F)ccc1[C@H]1CCN(Cc2nc3cnccc3n2C)C[C@H]1C` (relative stereo) [compound 192]: the half-maximal effective concentration (EC50) came to 1170 nM.

On to `COc1cc(OC(F)(F)F)ccc1[C@H]1CCN(Cc2nc3cnccc3n2C)C[C@H]1C` (relative stereo) [compound 214], for which the EC50 came out at 124 nM. As to `C[C@@H]1CN(Cc2nc3ncccc3n2C)CC[C@@H]1c1ccc(C(F)(F)F)cc1Cl` (single isomer, unassigned) [compound 162], the EC50 is under 18 nM. Same read-out and setting: the result for `COc1ccccc1[C@]1(C)CCN(Cc2nc3ncccc3n2C)C[C@@H]1C` [compound 56] reads 3820 nM.

Still in this assay, the particulars now being: HEK cells stably transfected with mGluR2 and Gα15; FLIPR (Fluo-4); potentiation of an EC10 to EC20 concentration of glutamate; Table 9.
As for `C[C@@H]1CN(Cc2nc3nccc4c3n2CCC4)CC[C@@H]1c1ccc(F)c(Cl)c1` (relative stereo) [Example 128, 2-{[Cis-4-(3-chloro-4-fluorophenyl)-3-methylpiperidin-1-yl]methyl}-5,6-dihydro-4H-imidazo[4,5,1-ij]-1,7-naphthyridine], the EC50 worked out at 134 nM. Consider `C[C@@H]1CN(Cc2nc3nccc4c3n2CCC4)CC[C@@H]1c1ccc(Cl)cc1F` (relative stereo) [Example 129, 2-{[Cis-4-(4-chloro-2-fluorophenyl)-3-methylpiperidin-1-yl]methyl}-5,6-dihydro-4H-imidazo[4,5,1-ij]-1,7-naphthyridine], for which the half-maximal effective concentration (EC50) was found to be 12.5 nM. On the same count and under the same terms, the result for `FC(F)(F)c1ccc(C2CCN(Cc3nc4nccc5c4n3CCC5)CC2)cc1` [Example 126, 2-({4-[4-(trifluoromethyl)phenyl]-piperidin-1-yl}methyl)-5,6-dihydro-4H-imidazo[4,5,1-ij]-1,7-naphthyridine] reads 62.6 nM.

The assay is the same for the next values; noted with them: mGluR2 potentiator screen, FLIPR, EC10-EC20 glutamate challenge.
Regarding `Cn1c(CN2CCC(c3c(F)cccc3C(F)(F)F)CC2)nc2ncccc21` [compound 229], the EC50 was found to be 212 nM. For `Cn1c(CN2CCC(c3ccc(OC(F)F)cc3)CC2)nc2cnccc21` [compound 263], the EC50 turned out to be 906 nM.

As for `C[C@@H]1CN(Cc2nc3ncccc3n2C)CC[C@@H]1c1ccc(OC(F)F)cc1F` (relative stereo) [compound 257], the concentration giving a half-maximal response (EC50) came to 67.7 nM. The same measure, in the same setting: the result for `Cn1c(CN2CCC(c3ccc(OC(F)(F)F)cc3)CC2)nc2ncccc21` [compound 231] reads 84.5 nM. The same measure, in the same setting: then `C[C@@H]1CN(Cc2nc3cnccc3n2C)CC[C@@H]1c1ccc(OC(F)(F)F)cc1Cl` (single isomer, unassigned) [compound 253], with 1820 nM; and `Cc1cc(OC(F)(F)F)ccc1C1CCN(Cc2nc3cnccc3n2C)CC1` [compound 240], with 96.8 nM; and `Cn1c(CN2CCC(c3ccc(OC(F)F)cc3Cl)CC2)nc2cnccc21` [compound 265], with 164 nM. The same measure, in the same setting: then `Cn1c(CN2CCC(c3ccc(C(F)(F)F)cc3F)CC2)nc2ncccc21` [compound 268], with 12.7 nM; and `C[C@@H]1CN(Cc2nc3cnccc3n2C)CC[C@@H]1c1ccc(OC(F)F)cc1Cl` (single isomer, unassigned) [compound 247], with over 1410 nM; and `Cc1cc(C2CCN(Cc3nc4cnccc4n3C)CC2)ccc1C(F)(F)F` [compound 276], with 88.5 nM. For the compound `C[C@@H]1CN(Cc2nc3ncccc3n2C)CC[C@@H]1c1ccc(F)cc1C(F)(F)F` (single isomer, unassigned) [compound 252], the EC50 was 288 nM. For `COc1cc(F)ccc1[C@H]1CCN(Cc2nc3cnccc3n2C)C[C@H]1C` (single isomer, unassigned) [compound 259], the EC50 came out at 1460 nM.

As usually defined, the EC50 is the concentration at which the effect is half-maximal.
